Source: ChEMBL document CHEMBL1201862, “PubChem BioAssay data set” (2004)
Active and inactive are the calls of the source.

Assays:
[1] = biological target: G-protein coupled receptor 183 (Homo sapiens, UniProt P32249); experiment: SAR confirmation of small molecule antagonists of the EBI2 receptor via a luminescent beta-arrestin assa.; assay type: functional
[2] = P. falciparum Dd2 growth inhibitors, dose response, SYBR Green, cherry-picked samples (AID 1159567); assay type: functional, cell-based
[3] = toxicity to human hepatoma HepG2 cells – cell-based, cherry-picked samples, cytotoxicity control, dose response (AID 1159577); assay type: functional
BJ [4] = experiment: BJ-TERT fibroblast viability loss – cell-based, RAS-independent, luminescence, dose response (AID 1933); assay type: functional; details: Homo sapiens
[5] = DRD fibroblast viability loss – cell-based, non-viral oncogenic, luminescence, dose response (AID 1934); assay type: functional; details: Homo sapiens
Protein RecA = biological target: T1, Protein RecA (Mycobacterium tuberculosis, UniProt P9WHJ3); experiment: Fluorescence Cell-Free Homogeneous Dose Retest to Identify Inhibitors of RecA-Intein Splicing Activity. [Related pubchem assays (depositor defined):AID2097, AID2223, AID489010, AID492950]; assay type: functional
T1 sequence (P9WHJ3 whole entry): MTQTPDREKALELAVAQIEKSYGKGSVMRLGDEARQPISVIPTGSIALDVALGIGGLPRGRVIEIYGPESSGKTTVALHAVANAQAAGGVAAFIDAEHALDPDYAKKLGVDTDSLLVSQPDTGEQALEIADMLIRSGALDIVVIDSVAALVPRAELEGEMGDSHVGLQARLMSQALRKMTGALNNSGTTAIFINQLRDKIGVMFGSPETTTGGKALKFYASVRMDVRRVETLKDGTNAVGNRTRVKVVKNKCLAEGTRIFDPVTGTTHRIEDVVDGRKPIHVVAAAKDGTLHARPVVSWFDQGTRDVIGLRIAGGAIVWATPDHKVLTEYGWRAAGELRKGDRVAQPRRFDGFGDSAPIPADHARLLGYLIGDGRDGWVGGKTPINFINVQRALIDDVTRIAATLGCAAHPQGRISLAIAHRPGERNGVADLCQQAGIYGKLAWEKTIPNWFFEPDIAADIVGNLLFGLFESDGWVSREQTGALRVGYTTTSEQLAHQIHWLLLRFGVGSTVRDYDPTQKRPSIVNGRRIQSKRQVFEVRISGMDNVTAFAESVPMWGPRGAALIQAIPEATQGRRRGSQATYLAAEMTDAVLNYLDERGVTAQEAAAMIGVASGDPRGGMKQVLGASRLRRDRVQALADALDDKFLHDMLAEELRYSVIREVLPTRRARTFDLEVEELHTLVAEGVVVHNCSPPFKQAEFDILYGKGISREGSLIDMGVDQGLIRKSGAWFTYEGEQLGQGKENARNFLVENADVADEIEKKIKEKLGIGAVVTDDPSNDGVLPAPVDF

[6] = biological target: E3 ubiquitin-protein ligase Mdm2 (Homo sapiens, UniProt Q00987); experiment: MDM2-luc reporter signal enhancers, multi-concentration potency testing, MDM2 ubiquitin-protein ligase inhibitor program, whole-cell format, luminescence detection, 384-well microplate (AID 1394); assay type: functional;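 also: MDM2 E3 inhibitors raise luminescence so EC50 is for signal enhancement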
BJ [7] = experiment: cells; assay type: functional, cell-based; details: Homo sapiens
[8] = biological target: T2, Replicative DNA helicase DnaB (Mycobacterium tuberculosis, UniProt P9WMR3); experiment: DnaB intein splicing inhibitors, dose response, biochemical, cell-free fluorescence (AID 449749); assay type: functional
T2 sequence (P9WMR3 whole entry): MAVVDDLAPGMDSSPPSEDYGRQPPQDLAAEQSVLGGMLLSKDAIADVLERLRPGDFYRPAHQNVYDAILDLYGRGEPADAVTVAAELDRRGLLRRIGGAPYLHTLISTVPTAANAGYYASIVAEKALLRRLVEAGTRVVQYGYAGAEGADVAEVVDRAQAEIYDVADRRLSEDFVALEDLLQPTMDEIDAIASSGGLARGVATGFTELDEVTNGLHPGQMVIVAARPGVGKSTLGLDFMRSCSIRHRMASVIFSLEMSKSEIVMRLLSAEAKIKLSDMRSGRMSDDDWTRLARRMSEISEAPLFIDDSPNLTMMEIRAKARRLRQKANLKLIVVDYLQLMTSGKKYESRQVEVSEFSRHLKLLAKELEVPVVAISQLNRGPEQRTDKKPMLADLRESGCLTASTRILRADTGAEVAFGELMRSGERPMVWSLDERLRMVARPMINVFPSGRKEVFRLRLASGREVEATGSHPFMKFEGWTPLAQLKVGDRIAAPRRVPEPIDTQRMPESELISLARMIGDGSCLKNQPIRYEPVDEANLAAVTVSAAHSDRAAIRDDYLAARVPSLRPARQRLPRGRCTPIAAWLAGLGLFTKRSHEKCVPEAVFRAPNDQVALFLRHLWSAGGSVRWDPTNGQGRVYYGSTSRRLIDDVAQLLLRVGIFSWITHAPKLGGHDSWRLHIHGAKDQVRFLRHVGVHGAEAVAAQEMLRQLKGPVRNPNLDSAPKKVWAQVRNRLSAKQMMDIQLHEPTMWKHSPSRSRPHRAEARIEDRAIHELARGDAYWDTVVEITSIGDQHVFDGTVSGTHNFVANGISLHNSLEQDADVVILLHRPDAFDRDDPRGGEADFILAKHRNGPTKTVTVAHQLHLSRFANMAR

[9] = biological target: T3, Low molecular weight phosphotyrosine protein phosphatase (Homo sapiens, UniProt P24666); experiment: inhibition of human LMPTP enzyme activity – biochemical, absorbance, pNPP substrate, LMPTP-A isoform, set 2, orthogonal assay, dose response (AID 743308); assay type: functional
T3 sequence (P24666 whole entry): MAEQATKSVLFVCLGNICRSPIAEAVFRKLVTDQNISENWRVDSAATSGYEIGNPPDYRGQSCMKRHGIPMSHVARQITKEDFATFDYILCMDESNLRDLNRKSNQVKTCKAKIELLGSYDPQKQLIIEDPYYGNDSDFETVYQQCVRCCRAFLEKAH

[10] = biological target: T3, Low molecular weight phosphotyrosine protein phosphatase; experiment: inhibition of LMPTP-A enzymatic activity – biochemical, OMFP substrate, fluorescence intensity, set 2, dose response (AID 743307); assay type: functional
[11] = glucagon-like peptide-1 release potency in STC-1, concentration-response, half-maximal inhibitory concentration in the STC-1 line (AID 1117345); assay type: functional, cell-based
[12] = Potency on glucagon-like peptide 1 release, dose-response in NCI-H716 cell line, half maximal inhibitory concentration (AID 1117344); assay type: functional, cell-based

E3 ubiquitin-protein ligase Mdm2, sequence (Q00987 whole entry): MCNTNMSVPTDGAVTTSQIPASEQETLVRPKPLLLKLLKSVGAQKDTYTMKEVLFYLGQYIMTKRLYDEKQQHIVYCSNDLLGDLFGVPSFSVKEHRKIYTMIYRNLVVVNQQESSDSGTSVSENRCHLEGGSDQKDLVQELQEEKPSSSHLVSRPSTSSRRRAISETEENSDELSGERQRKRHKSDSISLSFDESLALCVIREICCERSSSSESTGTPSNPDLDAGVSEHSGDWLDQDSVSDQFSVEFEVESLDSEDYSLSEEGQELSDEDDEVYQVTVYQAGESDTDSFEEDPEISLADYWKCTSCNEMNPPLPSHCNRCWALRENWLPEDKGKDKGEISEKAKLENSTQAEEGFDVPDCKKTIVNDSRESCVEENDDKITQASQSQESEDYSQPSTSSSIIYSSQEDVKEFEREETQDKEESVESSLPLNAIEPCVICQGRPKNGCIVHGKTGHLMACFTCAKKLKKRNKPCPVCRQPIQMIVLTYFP
G-protein coupled receptor 183, sequence (P32249 whole entry): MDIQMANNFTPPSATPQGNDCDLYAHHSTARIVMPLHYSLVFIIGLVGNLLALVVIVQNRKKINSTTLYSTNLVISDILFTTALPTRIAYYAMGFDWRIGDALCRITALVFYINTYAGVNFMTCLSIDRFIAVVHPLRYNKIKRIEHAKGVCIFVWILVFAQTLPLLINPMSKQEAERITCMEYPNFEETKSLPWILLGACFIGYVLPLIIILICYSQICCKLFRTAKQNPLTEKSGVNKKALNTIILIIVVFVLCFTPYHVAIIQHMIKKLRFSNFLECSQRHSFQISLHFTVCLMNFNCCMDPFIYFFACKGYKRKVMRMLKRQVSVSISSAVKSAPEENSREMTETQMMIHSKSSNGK

**Q.** Which IC50 [1] does the source give for `O=C(/C=C/c1ccc(F)cc1)N1CCN(S(=O)(=O)c2ccc(Cl)cc2)CC1` here?
**A.** 0.00548 µM (active)

**Q.** For `N#C[C@@H]1[C@H](c2ccc(C#Cc3ccccc3F)cc2)[C@H](CO)N1C(=O)C1CCCC1`, which AC50 [2] is on record?
**A.** 3.48 µM (active)

**Q.** And the AC50 [3]?
**A.** > 39 µM (inactive)

**Q.** What does the source list for `Cc1ccc(C=C2C(Cl)=C(Cl)C(Cl)=C2Cl)cc1`?
**A.** EC50 (BJ [4]): 5.3 µM (inconclusive); EC50 [5]: 5.03 µM (inconclusive); EC50 (Protein RecA): 5.66 µM (active); EC50 [6]: 0.78 µM (active); EC50 (BJ [7]): 6.03 µM (inconclusive); AC50 [8]: > 380 µM (inactive)

**Q.** For `CC(C)Nc1nc(-c2ccccc2)nc2ccccc12`, which IC50 [9] is on record?
**A.** 35.8 µM (inactive)

**Q.** What about the IC50 [10] of the same molecule?
**A.** 15 µM (active)

**Q.** Which IC50 [11] does the source give for `CCCCCCCCCCCCCCNCCO` here?
**A.** > 20 µM (inactive)

**Q.** And the IC50 [12]?
**A.** 13.6 µM (inactive)
